Results on one compound are retold here after patent US8304452B2, “Radical scavenger and active oxygen eliminating agent” (InBiotex Inc., priority 2005, dated 2012).

Each structure is given as a SMILES string.

Data set [1] concerns galactosemic cataract model. As to the kind of experiment: Galactosemic cataract model, eye drops (Example 4). The following applies: for severity of cataract (Cotlier standard score): four times per day, n=10, mean±standard deviation; for Pathological findings of lens: Alignment irregularity of lens cortical fiber / Pathological findings of lens: Cataract / Pathological findings of lens: Vacuolation of lens epithelium / Pathological findings of lens: Vacuole structure in outer cortex: eye balls resected 28 days later; for cases with severe sugar cataract: until day 28 of eye dropping. It is filed as in vivo, Crj:CD(SD) IGS rats. Details: key to Pathological findings of lens: Cataract / Pathological findings of lens: Vacuolation of lens epithelium / Pathological findings of lens: Alignment irregularity of lens cortical fiber / Pathological findings of lens: Vacuole structure in outer cortex: −: no change; ±: very slight change; +: slight change; 2+: medium change; 3+: significant change. As to the method: 352 mg of a test substance was weighed and then dissolved in 1.1 mL of 1N NaOH (1 mol/L sodium hydroxide; manufactured by Wako Pure Chemical, Co., Ltd.). After dissolution, it was verified with a pH paper (Duotest under trade name; MACHEREY-NAGEL) that the pH was within an acceptable range (5 to 8). Subsequently, the resulting solution was divided in each volume of 0.03 mL into 30 2-ml tubes (28 such tubes for four tests per day for 7 days+2 such tubes for spare). These were immediately frozen in liquid nitrogen, and stored under freezing (preset at −85° C. within an acceptable range of −90 to −75° C.)/dark conditions. The solutions under storage were defined as stock solution at 320 mg/mL. The stock solutions could be used within 8 days after the preparation. The stock solutions outside the 8-day period after the preparation were disposed. Before eye dropping, the following preparation was done. After the tubes of the stock solution at 320 mg/mL were back to ambient temperature, 0.93 mL of physiological saline was directly added to the tubes for dilution. After preparative dilution, it was verified with a pH paper that the pH of the diluted solutions were within an acceptable range (5 to 8). The resulting eye drop was defined as 1.0% eye drop for use in administration. 0.09 mL of the 1.0% eye drop was divided in a 2-mL tube, to which 0.81 mL of physiological saline was directly added for dilution. Subsequently, it was verified with a pH paper that the pH of the diluted solution was within an acceptable range (5 to 8). The resulting eye drop was defined as 0.1% eye drop, for use in administration. Herein, eye drops of pH outside the acceptable range were never used. The 1.0% eye drop and the 0.1% eye drop practically used for administration were at pH 5.2 to 8.0 and pH 6.2 to 7.4, respectively. As the medium, physiological saline as the control substance was used as it was. Male Crj:CD(SD) IGS rats (SPF) of age 3 weeks were subjected to a 5-day quarantine period and then to an 8-day acclimatization period. By the random extraction method, the rats were grouped in 3 groups, where each group consisted of 10 rats, in a manner such that the average body weight and deviation in each group might be almost equal. After grouping, the rats were fed ad libitum with a powdery feed containing galactose at 50% [a powder feed (Lot No. 050107) of a mixture at equal amounts of CRF-1 powder feed (Lot No. 041104; manufacturer: Oriental Yeast Co., Ltd.) and galactose (D-galactose, Lot No. QYG0223, manufacturer: Yoneyama Pharmaceutical Industry, Co. Ltd.); the mixture was prepared by Oriental Yeast Co., Ltd.; abbreviated as {galactose feed}] hereinafter], as placed in a powder feeder. Additionally, the rats were fed ad libitum with drinking water. The three groups were defined as (A) medium control group, (B) 0.1% 5-S-GAD eye drop group, and (C) 1.0% 5-S-GAD eye drop group for dosing. The administration route was eye dropping as a clinically prospective route. The number of eye dropping per day was four times, while the interval between eye droppings was about 2 hours. The eye dropping was done around 9:30 am (9:00 am to 10:00 am as the defined time period), around 11:30 (11:00 am to 12:00 am as the defined time period), around 13:30 (13:00 pm to 14:00 pm as the defined time period) and around 15:30 pm (15:00 pm to 16:00 pm as the defined time period). Eye dropping was done over 28 days. On day 1, day 7, day 14, day 21 and day 28, ophthalmologic examinations were done about 30 minutes after each last eye dropping. The observation method is as follows. Right eye with eye drop application and left eye without any treatment were observed of their lenses, using a slit lamp (SL-15, Kowa Company, Ltd.). The severity of cataract was evaluated, according to the Cotlier standard (see FIG. 1 in Arch Ophthalmol., (67) 476-82, 1962, which was entitled ‘Development of galactose cataract in the rat, showing biomicroscopic front and slit view’). […]

The test system of data set [2] is human LDL. As to the kind of experiment: Effect on the oxidation of LDL in human blood, TBARS (Example 11). The following applies: LDL + 5 μM CuSO4, TBARS; FIG. 11. The class given is biochemical. As to the method: LDL was prepared by a fractionation and centrifugation method. A fraction at a specific gravity of 1.019 to 1.063 g/mL in serum was defined as human LDL. 5 μM CuSO4, 5-S-GAD (3 to 100 μM) and N-acetyl-carnosine (100 μM to 10 mM) or L-carnosine (10 μM to 10 mM) were added to 0.2 mg/mL LDL, for incubation at 37° C. for 3 hours. After termination of the incubation, TEARS (a substance reactive with thiobarbituric acid) was assayed. Although the TBA reaction is a non-specific reaction, the reaction is used for a method of assaying various lipid peroxide products including malone dialdehyde. An experiment of peroxidation with copper sulfate was done twice (N=2).
An aqueous solution containing 3.75 mg/mL thiobarbituric acid (TBA), 150 mg/mL trichloroacetic acid (TCA) and 0.25 N hydrochloric acid (HCl) was prepared as the TBA reagent, while standard solutions (2, 5, 10, 20, 40 μM) of tetramethoxypropane were prepared. 100 μL each of an LDL sample or a standard solution was added together with 200 μL of the TBA reagent into an Eppendorf tube (1.5 mL), which was then sealed with a cap for thorough mixing. […] The supernatant was assayed of the absorbance (535 nm). Based on the absorbance of the standard solution, a standard curve was prepared. Based on the standard curve, the amount of TBARS in the LDL sample was calculated (in nmol/mg LDL protein) (see FIG. 11).

For the compound `NCCC(=O)N[C@@H](Cc1cc(O)c(O)c(SC[C@H](NC(=O)CC[C@H](N)C(=O)O)C(=O)NCC(=O)O)c1)C(=O)O` [5-S-GAD, N-β-alanyl-5-S-glutathionyl-3,4-dihydroxyphenylalanine], the “abnormality of general states” value in data set [1] (0.1% and 1.0% eye drop groups, before eye dropping and about one hour after the last eye dropping during the eye dropping period) is reported as “no abnormality of their general states was observed”. The “severity of cataract (Cotlier standard score)” value in data set [1] (0.1% eye drop, on day 1) is given as 0 ± 0; in data set [1] (0.1% eye drop, on day 7) it was 1.9 ± 0.1; in data set [1] (0.1% eye drop, on day 14), 2.5 ± 0.1; in data set [1] (0.1% eye drop, on day 21) it was 3.6 ± 0.1; in data set [1] (0.1% eye drop, on day 28), 3.9 ± 0.1; in data set [1] (1.0% eye drop, on day 1) it was 0 ± 0. In addition, the “severity of cataract (Cotlier standard score)” value was 1.8 ± 0.1 in data set [1] (1.0% eye drop, on day 7); 2.4 ± 0.1 in data set [1] (1.0% eye drop, on day 14); 3.4 ± 0.1 in data set [1] (1.0% eye drop, on day 21); 3.8 ± 0.1 in data set [1] (1.0% eye drop, on day 28). Further, the “Pathological findings of lens: Alignment irregularity of lens cortical fiber” value in data set [1] (0.1% eye drop) and in data set [1] (1.0% eye drop) was “+” throughout. Besides, the “Pathological findings of lens: Cataract” value in data set [1] (0.1% eye drop) and in data set [1] (1.0% eye drop) was 2+ throughout. Further, the “Pathological findings of lens: Vacuolation of lens epithelium” value in data set [1] (0.1% eye drop) is recorded as “±”; in data set [1] (1.0% eye drop), “−”. For the same compound, the “Pathological findings of lens: Vacuole structure in outer cortex” value in data set [1] (0.1% eye drop) and in data set [1] (1.0% eye drop) was “±” throughout. In addition, the figures for the “cases with severe sugar cataract” value in data set [1] (0.1% eye drop) and in data set [1] (1.0% eye drop) were “no case with severe sugar cataract occurred until day 28” and “No case with severe sugar cataract emerged until day 28”, respectively. Also, the “pathological effect in the galactosemic rat cataract model (in words)” value in data set [1] (pathological findings, day 28) is listed as “apparent ameliorating effect pathologically”. For the same compound, the “anti-oxidation action compared with N-acetyl-carnosine and L-carnosine (in words)” value in data set [2] is “excellent anti-oxidation action compared with N-acetyl-carnosine and L-carnosine”.
